These are literature values, as cited in patent publication US8563014B2, “Modafinil oral lyophilizate” (Teva Sante, priority 2004, dated 2013).

One data set concerns mice. Particulars: single administration.
Another data set relates to monkeys. Particulars: single administration.

Take `NC(=O)C[S+]([O-])C(c1ccccc1)c1ccccc1` (centres unmarked) [modafinil, 2-(benzhydrylsulfinyl)acetamide]: in the data set on mice, the Locomotor activity entry is “increased locomotor activity”. Further, in the data set on monkeys, the Nocturnal activity result was “increased nocturnal activity”.
